Experimental data reported in ChEMBL document CHEMBL1201862, “PubChem BioAssay data set” (2004).
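Cultured in 96-well plates, cells were exposed to test compound for 48 hours across five concentrations. Abbreviation: GI50, concentration required for 50% inhibition of growth.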 Activity calls are given as the source filed them. Cut-off read from the data, not from the text of the source: active = GI50 up to about 1.1 µM and inactive = higher.

What was measured:
Assay in all cases: NCI tumour cell line growth inhibition, 48 h
SK-MEL-2 = tested on: SK-MEL-2
EKVX = tested on: EKVX
CCRF-CEM = tested on: CCRF-CEM
HCC 2998 = tested on: HCC 2998
IGROV-1 = tested on: IGROV-1
SF-539 = tested on: SF-539
KM12 = tested on: KM12
NCI/ADR-RES = tested on: NCI/ADR-RES
NCI-H460 = tested on: NCI-H460
SNB-19 = tested on: SNB-19
SK-MEL-5 = tested on: SK-MEL-5
CAKI-1 = tested on: CAKI-1
UACC-62 = tested on: UACC-62
MOLT-4 = tested on: MOLT-4
A498 = tested on: A498
M14 = tested on: M14
TK-10 = tested on: TK-10
MDA-MB-231 = tested on: MDA-MB-231
MDA-MB-435 = tested on: MDA-MB-435

Measured: GI50

CCN(CC)CCNC(=O)C1COc2ccc(-c3cc(=O)c4ccccc4o3)cc2O1 (stereo not given)
inactive: SK-MEL-2 19.8 µM | EKVX 26.7 µM | CCRF-CEM 19.1 µM | HCC 2998 19.2 µM | IGROV-1 28.9 µM | SF-539 15.8 µM | KM12 18.2 µM | NCI/ADR-RES 19.2 µM | NCI-H460 16.8 µM | SNB-19 20.2 µM | SK-MEL-5 20.9 µM | CAKI-1 20.5 µM | UACC-62 17.6 µM | MOLT-4 20.6 µM | A498 16 µM

O=S(=O)(O)c1cc(/N=[N+](\[O-])c2ccc(/N=N/c3ccccc3)cc2S(=O)(=O)O)ccc1/C=C/c1ccc(/N=[N+](\[O-])c2ccc(/N=N/c3ccccc3)cc2S(=O)(=O)O)cc1S(=O)(=O)O
inactive: SK-MEL-2 > 100 µM | EKVX > 100 µM | CCRF-CEM > 95.3 µM | HCC 2998 > 100 µM | IGROV-1 > 100 µM | SF-539 > 31.6 µM | KM12 > 100 µM | NCI/ADR-RES > 100 µM | NCI-H460 > 100 µM | SNB-19 > 100 µM | SK-MEL-5 > 100 µM | UACC-62 > 100 µM | MOLT-4 > 100 µM | A498 > 100 µM

O=c1[nH]c2cc(-c3ccccc3)nc-2nn1-c1c(Cl)cc(Cl)cc1Cl
inactive: SK-MEL-2 26.5 µM | EKVX 24.9 µM | CCRF-CEM 28.6 µM | HCC 2998 4.03 µM | IGROV-1 38.5 µM | M14 23.9 µM | SF-539 19.4 µM | KM12 20.5 µM | NCI-H460 30.4 µM | SNB-19 33.1 µM | SK-MEL-5 25.9 µM | CAKI-1 27.5 µM | UACC-62 17.5 µM | MOLT-4 22.5 µM | A498 33 µM | TK-10 28.6 µM

Cc1ccccc1N(CC(=O)O)S(=O)(=O)c1ccccc1
inactive: SK-MEL-2 > 100 µM | EKVX > 100 µM | CCRF-CEM > 100 µM | HCC 2998 > 100 µM | IGROV-1 > 100 µM | M14 > 100 µM | SF-539 > 100 µM | KM12 > 100 µM | NCI-H460 > 100 µM | SNB-19 > 100 µM | SK-MEL-5 > 100 µM | CAKI-1 > 100 µM | UACC-62 > 100 µM | MOLT-4 > 100 µM | A498 > 100 µM | TK-10 > 100 µM

C[C@]12CC[C@H](OC(=O)Nc3ccccc3)CC1=CC[C@@H]1C2CC[C@]2(C)/C(=N/OC(=O)Nc3ccccc3)CCC12 (stereo not given in full)
inactive: SK-MEL-2 > 100 µM | EKVX 30.1 µM | CCRF-CEM 2.83 µM | HCC 2998 > 100 µM | IGROV-1 4.19 µM | M14 12.5 µM | SF-539 > 100 µM | KM12 8.15 µM | NCI-H460 25.6 µM | SNB-19 76.2 µM | SK-MEL-5 5.35 µM | CAKI-1 1.81 µM | UACC-62 > 100 µM | MOLT-4 5.05 µM | A498 > 100 µM | TK-10 6.61 µM

O=c1[nH]c(=O)n(COCc2ccccc2)c2ccccc12
inactive: SK-MEL-2 > 100 µM | EKVX 22.5 µM | CCRF-CEM 56.9 µM | IGROV-1 18.4 µM | MDA-MB-231 49.2 µM | M14 > 100 µM | SF-539 47.9 µM | KM12 59.8 µM | NCI/ADR-RES 20.5 µM | NCI-H460 40.9 µM | SNB-19 23 µM | MDA-MB-435 > 100 µM | SK-MEL-5 27.7 µM | CAKI-1 62.7 µM | UACC-62 75 µM | MOLT-4 44.4 µM | A498 > 100 µM | TK-10 51.5 µM

CCCCC1c2c([nH]c3ccccc23)C2C(=O)N(c3ccc(OC)cc3)C(=O)C2C1CCC (stereo not given)
inactive: SK-MEL-2 2.39 µM | EKVX 3.56 µM | CCRF-CEM 3.66 µM | HCC 2998 3.47 µM | IGROV-1 4.56 µM | MDA-MB-231 2.58 µM | M14 3.06 µM | SF-539 2.24 µM | KM12 2.1 µM | NCI/ADR-RES 2.96 µM | NCI-H460 4.19 µM | SNB-19 8.59 µM | MDA-MB-435 2.24 µM | SK-MEL-5 5.38 µM | CAKI-1 1.23 µM | UACC-62 2.29 µM | MOLT-4 2.74 µM | A498 3.4 µM | TK-10 4.37 µM

CC(O)C(NC(=O)C(CS)NC(=O)C(CO)NC(=O)C(CCCCN)NC(=O)C(Cc1c[nH]c2ccccc12)NC(=O)C(Cc1ccc(O)cc1)NC(=O)C(CS)NC(=O)C(N)Cc1ccccc1)C(N)=O (stereo not given)
inactive: SK-MEL-2 > 25 µM | EKVX > 25 µM | CCRF-CEM > 25 µM | HCC 2998 > 25 µM | IGROV-1 > 25 µM | MDA-MB-231 > 25 µM | M14 > 25 µM | SF-539 > 25 µM | KM12 > 25 µM | NCI/ADR-RES > 25 µM | NCI-H460 22.2 µM | SNB-19 26.2 µM | MDA-MB-435 > 25 µM | SK-MEL-5 > 25 µM | CAKI-1 > 25 µM | UACC-62 > 25 µM | MOLT-4 > 25 µM | A498 > 25 µM

CCNc1ncnc2nn[nH]c12
inactive: SK-MEL-2 > 100 µM | EKVX > 100 µM | CCRF-CEM > 100 µM | HCC 2998 > 100 µM | IGROV-1 > 100 µM | MDA-MB-231 > 100 µM | M14 > 100 µM | SF-539 > 100 µM | KM12 > 100 µM | NCI/ADR-RES > 100 µM | SNB-19 > 100 µM | MDA-MB-435 > 100 µM | SK-MEL-5 > 100 µM | CAKI-1 > 100 µM | UACC-62 > 100 µM | MOLT-4 > 100 µM | A498 > 100 µM | TK-10 > 100 µM

C=C=C(C(=O)OC)[S+]([O-])c1ccccc1[N+](=O)[O-] (stereo not given)
inactive: SK-MEL-2 > 100 µM | EKVX > 100 µM | CCRF-CEM 24.7 µM | HCC 2998 > 100 µM | IGROV-1 > 100 µM | M14 > 100 µM | SF-539 > 100 µM | KM12 > 100 µM | NCI-H460 > 100 µM | SNB-19 > 100 µM | SK-MEL-5 > 100 µM | CAKI-1 > 100 µM | UACC-62 > 100 µM | MOLT-4 > 100 µM | A498 > 100 µM | TK-10 > 100 µM

CCOc1ccccc1NC(=O)/C=C1\NC(=O)CS1
inactive: SK-MEL-2 > 100 µM | EKVX > 100 µM | CCRF-CEM 69 µM | HCC 2998 > 100 µM | IGROV-1 > 100 µM | M14 > 100 µM | SF-539 > 100 µM | KM12 > 100 µM | NCI-H460 > 100 µM | SNB-19 > 100 µM | SK-MEL-5 > 100 µM | CAKI-1 > 100 µM | UACC-62 > 100 µM | MOLT-4 > 100 µM | A498 > 100 µM | TK-10 > 100 µM

N=C(N)N/N=C(/CC1OC(=O)c2ccccc21)c1ccc2ccccc2c1 (stereo not given)
inactive: SK-MEL-2 46.9 µM | EKVX 23.1 µM | CCRF-CEM 15.1 µM | HCC 2998 17.3 µM | IGROV-1 22.1 µM | M14 16.7 µM | SF-539 13.2 µM | KM12 12.9 µM | NCI-H460 16.4 µM | SNB-19 > 100 µM | SK-MEL-5 21.4 µM | CAKI-1 > 100 µM | UACC-62 17.9 µM | MOLT-4 23.6 µM | A498 16 µM | TK-10 18.1 µM

CCc1cccc(C(C)C)c1NC(=O)C(=O)C(CC(=O)Nc1ccc(Cl)c(Cl)c1)C(=O)OC (stereo not given)
inactive: SK-MEL-2 > 100 µM | EKVX > 100 µM | CCRF-CEM > 100 µM | HCC 2998 > 100 µM | IGROV-1 > 100 µM | M14 54.3 µM | SF-539 > 100 µM | KM12 43.7 µM | NCI-H460 85.7 µM | SNB-19 > 100 µM | SK-MEL-5 55.8 µM | CAKI-1 > 100 µM | UACC-62 2.18 µM | MOLT-4 > 100 µM | A498 > 100 µM | TK-10 > 100 µM

CCOC(=O)c1csc(NC(=O)CN2CCOCC2)n1
inactive: SK-MEL-2 > 100 µM | EKVX > 100 µM | CCRF-CEM > 100 µM | HCC 2998 > 100 µM | IGROV-1 > 100 µM | MDA-MB-231 > 100 µM | M14 > 100 µM | SF-539 > 100 µM | KM12 > 100 µM | NCI/ADR-RES > 100 µM | NCI-H460 > 100 µM | SNB-19 > 100 µM | MDA-MB-435 > 100 µM | SK-MEL-5 > 100 µM | CAKI-1 > 100 µM | UACC-62 > 100 µM | MOLT-4 17.1 µM | A498 > 100 µM | TK-10 > 100 µM

COc1ccc(/C=c2\sc3nnc(CCC(=O)Nc4cccc(C(F)(F)F)c4)n3c2=O)cc1
inactive: SK-MEL-2 72.9 µM | EKVX > 100 µM | CCRF-CEM 37.2 µM | HCC 2998 > 100 µM | IGROV-1 > 100 µM | M14 > 100 µM | SF-539 > 100 µM | KM12 > 75.9 µM | NCI-H460 > 100 µM | SNB-19 > 100 µM | SK-MEL-5 > 100 µM | CAKI-1 > 79.8 µM | UACC-62 > 62.8 µM | MOLT-4 4.56 µM | A498 > 100 µM | TK-10 > 100 µM

O=C(Cc1nc2ccccc2o1)C(=O)Nc1cccc(C(F)(F)F)c1
inactive: SK-MEL-2 > 100 µM | EKVX > 100 µM | CCRF-CEM > 100 µM | HCC 2998 > 100 µM | IGROV-1 > 100 µM | M14 > 100 µM | SF-539 > 100 µM | KM12 > 100 µM | NCI-H460 > 100 µM | SNB-19 > 100 µM | SK-MEL-5 > 100 µM | CAKI-1 > 100 µM | UACC-62 > 100 µM | MOLT-4 > 100 µM | A498 > 100 µM | TK-10 > 100 µM
